Measurements from ChEMBL document CHEMBL4052759, “Discovery of DS79182026: A potent orally active hepcidin production inhibitor” (Bioorg Med Chem Lett, 2017).

Assays:
[1] = target: Insulin-like growth factor 1 receptor (Homo sapiens) (UniProt P08069); test: Inhibition of IGF1R (unknown origin) at 0.49 uM relative to control
[2] = target: Ephrin type-A receptor 4 (Homo sapiens) (UniProt P54764); test: Inhibition of EPHA4 (unknown origin) at 0.49 uM relative to control
[3] = target: Tyrosine-protein kinase HCK (Homo sapiens) (UniProt P08631); test: Inhibition of Hck (unknown origin) at 0.49 uM relative to control
[4] = tested on: Leucine-rich repeat serine/threonine-protein kinase 2 (Homo sapiens), Q5S007 [G2019S]; test: Inhibition of LRRK2 G2019S mutant (unknown origin) at 0.49 uM relative to control
Homo sapiens = species on record: Homo sapiens; test: Inhibition of ACK (unknown origin) at 0.49 uM relative to control
[5] = target: Mitogen-activated protein kinase kinase kinase kinase 4 (Homo sapiens) (UniProt O95819); test: Inhibition of HGK (unknown origin) at 0.49 uM relative to control
[6] = target: Mitogen-activated protein kinase 3 (Homo sapiens) (UniProt P27361); test: Inhibition of Erk1 (unknown origin) at 0.49 uM relative to control
[7] = target: Tyrosine-protein kinase SYK (Homo sapiens) (UniProt P43405); test: Inhibition of SYK (unknown origin) at 0.49 uM relative to control
[8] = target: Aurora kinase C (Homo sapiens) (UniProt Q9UQB9); test: Inhibition of AurC (unknown origin) at 0.49 uM relative to control
[9] = target: Protein kinase C beta type (Homo sapiens) (UniProt P05771); test: Inhibition of PKC-beta1 (unknown origin) at 0.49 uM relative to control
[10] = target: MAP kinase-activated protein kinase 2 (Homo sapiens) (UniProt P49137); test: Inhibition of MAPKAPK2 (unknown origin) at 0.49 uM relative to control
[11] = target: Platelet-derived growth factor receptor beta (Homo sapiens) (UniProt P09619); test: Inhibition of PDGFR beta (unknown origin) at 0.45 uM relative to control
[12] = target: Discoidin domain-containing receptor 2 (Homo sapiens) (UniProt Q16832); test: Inhibition of DDR2 (unknown origin) at 0.45 uM relative to control
[13] = target: Vascular endothelial growth factor receptor 1 (Homo sapiens) (UniProt P17948); test: Inhibition of FLT1 (unknown origin) at 0.45 uM relative to control
[14] = target: Tyrosine-protein kinase ABL2 (Homo sapiens) (UniProt P42684); test: Inhibition of Arg (unknown origin) at 0.45 uM relative to control
[15] = target: T1, Serine/threonine-protein kinase Sgk1 (Homo sapiens) (UniProt O00141); test: Inhibition of SGK1 (unknown origin) at 0.45 uM relative to control
T1 sequence (whole entry): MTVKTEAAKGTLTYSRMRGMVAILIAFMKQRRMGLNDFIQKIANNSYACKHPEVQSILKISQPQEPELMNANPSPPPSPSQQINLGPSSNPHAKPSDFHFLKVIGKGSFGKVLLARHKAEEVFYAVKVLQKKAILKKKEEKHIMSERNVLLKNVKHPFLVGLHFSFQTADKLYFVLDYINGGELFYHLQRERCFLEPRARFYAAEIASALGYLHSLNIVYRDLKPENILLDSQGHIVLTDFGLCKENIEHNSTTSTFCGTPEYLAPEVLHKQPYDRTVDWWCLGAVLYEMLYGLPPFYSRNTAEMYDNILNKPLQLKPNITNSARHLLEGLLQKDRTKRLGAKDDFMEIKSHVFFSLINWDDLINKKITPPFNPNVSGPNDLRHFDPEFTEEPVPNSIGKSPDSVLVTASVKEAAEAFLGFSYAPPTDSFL

[16] = target: CDK6/cyclin D3 (Homo sapiens) (UniProt P30281+Q00534); test: Inhibition of CDK6/CyclinD3 (unknown origin) at 0.45 uM relative to control; type: protein-complex assay
[17] = target: Tyrosine-protein kinase SYK (Homo sapiens) (UniProt P43405); test: Inhibition of SYK (unknown origin) at 0.078 uM relative to control
[18] = target: Proto-oncogene tyrosine-protein kinase Src (Homo sapiens) (UniProt P12931); test: Inhibition of SRC (unknown origin) at 0.078 uM relative to control
[19] = target: Mitogen-activated protein kinase 3 (Homo sapiens) (UniProt P27361); test: Inhibition of Erk1 (unknown origin) at 0.078 uM relative to control
[20] = target: T2, Serine/threonine-protein kinase 3 (Homo sapiens) (UniProt Q13188); test: Inhibition of MST2 (unknown origin) at 0.078 uM relative to control
T2 sequence (whole entry): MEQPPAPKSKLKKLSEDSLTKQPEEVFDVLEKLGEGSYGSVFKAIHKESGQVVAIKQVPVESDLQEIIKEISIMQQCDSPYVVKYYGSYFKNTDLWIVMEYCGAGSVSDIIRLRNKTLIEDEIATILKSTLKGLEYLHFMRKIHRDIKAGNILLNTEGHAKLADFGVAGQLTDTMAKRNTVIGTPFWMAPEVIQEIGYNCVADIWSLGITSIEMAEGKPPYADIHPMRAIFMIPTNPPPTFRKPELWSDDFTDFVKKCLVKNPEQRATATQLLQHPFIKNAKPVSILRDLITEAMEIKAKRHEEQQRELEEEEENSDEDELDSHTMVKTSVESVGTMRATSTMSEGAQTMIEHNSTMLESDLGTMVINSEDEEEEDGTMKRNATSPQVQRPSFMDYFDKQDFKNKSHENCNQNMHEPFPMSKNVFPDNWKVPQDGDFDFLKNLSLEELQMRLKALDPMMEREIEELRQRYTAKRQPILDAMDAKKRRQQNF

[21] = target: Tyrosine-protein kinase Lyn (Homo sapiens) (UniProt P07948); test: Inhibition of LYN (unknown origin) at 0.078 uM relative to control
[22] = target: T3, Serine/threonine-protein kinase Chk1 (Homo sapiens) (UniProt O14757); test: Inhibition of CHK1 (unknown origin) at 0.078 uM relative to control
T3 sequence (whole entry): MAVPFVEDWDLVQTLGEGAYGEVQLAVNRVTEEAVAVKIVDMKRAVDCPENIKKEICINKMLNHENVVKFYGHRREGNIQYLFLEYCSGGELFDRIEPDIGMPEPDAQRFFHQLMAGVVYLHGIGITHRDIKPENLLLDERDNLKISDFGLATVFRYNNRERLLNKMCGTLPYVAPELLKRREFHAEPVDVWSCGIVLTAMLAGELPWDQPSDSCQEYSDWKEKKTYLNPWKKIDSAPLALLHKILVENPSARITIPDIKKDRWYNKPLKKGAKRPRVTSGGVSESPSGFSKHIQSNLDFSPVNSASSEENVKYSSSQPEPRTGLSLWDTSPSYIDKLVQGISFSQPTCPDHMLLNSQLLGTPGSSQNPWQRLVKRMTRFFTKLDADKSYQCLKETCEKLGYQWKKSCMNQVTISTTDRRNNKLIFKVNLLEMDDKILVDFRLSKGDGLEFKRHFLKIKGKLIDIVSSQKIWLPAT

Structure (SMILES): Cc1[nH]nc(C2CC2)c1-c1ccc2c(NC(=O)C3CC3)noc2c1
- inhibition [1]: 1.3%
- inhibition [2]: 2.3%
- inhibition [3]: 3.3%
- inhibition [4]: 5.3%
- inhibition (Homo sapiens): 2.3%
- inhibition [5]: 4%
- inhibition [6]: 3.7%
- inhibition [7]: 0.7%
- inhibition [8]: -3.3%
- inhibition [9]: 5%
- inhibition [10]: 2.7%

Structure (SMILES): Cc1n[nH]c(C)c1-c1ccc2c(NC(=O)c3ccc(N4CCN(C)CC4)cc3)n[nH]c2c1
- inhibition [11]: 78.3%
- inhibition [12]: 66%
- inhibition [13]: 12.7%
- inhibition [14]: 66.3%
- inhibition [15]: 2.3%
- inhibition [16]: 5.3%

Structure (SMILES): COC(=O)Nc1noc2cc(-c3c(-c4ccccn4)n[nH]c3C)ccc12
- inhibition [17]: 0%
- inhibition [18]: 2.3%
- inhibition [19]: 8%
- inhibition [20]: 2%
- inhibition [21]: -0.3%
- inhibition [22]: 1.3%
